{"source": "PubChem BioAssay AID2060887", "about": "(Molecular Pharmacology Branch, DTP, NCI, 2025);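 also: spheroids exposed to compounds for 7 days before reading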;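 as to viability, T/C: 100% = DMSO vehicle control viability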", "tested_on": "782815-120-R-J1-PDC complex spheroid viability", "experiment": "Anticancer human tumor 782815-120-R-J1-PDC patient-derived colon adenocarcinoma cell line growth inhibition [RAS]", "settings": "for IC50: curve of first compound; for viability, T/C: stronger effect = lower value", "in_short": "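Multi-cell-type spheroids: tumor cells plus HUVEC endothelial cells and mesenchymal stem cells. RAS-pathway inhibitors were combined with targeted agents, each dosed in half-log steps down from clinical Cmax, or from 10 microM when Cmax was unknown.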"}
{"smiles": "CC1(C)CCC(Nc2ncc(C(F)(F)F)c(-c3c[nH]c4c(P(C)(C)=O)c(C#N)ccc34)n2)CN1", "note": "(centres undefined) + CCn1c(-c2cccnc2C(C)OC)c2c3cc(ccc31)N1CCOC(CC(NC(=O)C(C(C)C)N(C)C(=O)C3(F)CCN(C(=O)C#CC(C)(C)N(C)C)CC3)C(=O)N3CCCC(N3)C(=O)OCC(C)(C)C2)C1", "values": [{"measurement": "IC50", "setting": "second compound 0.000949 µM", "result": 42.5, "unit": "nM"}, {"measurement": "IC50", "setting": "second compound 0.003 µM", "result": 43.5, "unit": "nM"}, {"measurement": "IC50", "setting": "second compound 0.00949 µM", "result": 67.2, "unit": "nM"}, {"measurement": "IC50", "setting": "second compound 0.03 µM", "result": 56.3, "unit": "nM"}, {"measurement": "IC50", "setting": "second compound 0.0949 µM", "result": 62.4, "unit": "nM"}, {"measurement": "IC50", "setting": "second compound 0.3 µM", "result": 30.1, "unit": "nM"}, {"measurement": "viability, T/C", "setting": "second compound 0.000949 µM, first compound 0.000949 µM", "result": 105, "unit": "%"}, {"measurement": "viability, T/C", "setting": "second compound 0.000949 µM, first compound 0.003 µM", "result": 93.1, "unit": "%"}, {"measurement": "viability, T/C", "setting": "second compound 0.000949 µM, first compound 0.00949 µM", "result": 68.5, "unit": "%"}, {"measurement": "viability, T/C", "setting": "second compound 0.000949 µM, first compound 0.03 µM", "result": 51, "unit": "%"}, {"measurement": "viability, T/C", "setting": "second compound 0.000949 µM, first compound 0.0949 µM", "result": 49.8, "unit": "%"}, {"measurement": "viability, T/C", "setting": "second compound 0.000949 µM, first compound 0.3 µM", "result": 41.2, "unit": "%"}, {"measurement": "viability, T/C", "setting": "second compound 0.003 µM, first compound 0.000949 µM", "result": 91.5, "unit": "%"}, {"measurement": "viability, T/C", "setting": "second compound 0.003 µM, first compound 0.003 µM", "result": 89.2, "unit": "%"}, {"measurement": "viability, T/C", "setting": "second compound 0.003 µM, first compound 0.00949 µM", "result": 81.8, "unit": "%"}, {"measurement": "viability, T/C", "setting": "second compound 0.003 µM, first compound 0.03 µM", "result": 52.1, "unit": "%"}, {"measurement": "viability, T/C", "setting": "second compound 0.003 µM, first compound 0.0949 µM", "result": 45.8, "unit": "%"}, {"measurement": "viability, T/C", "setting": "second compound 0.003 µM, first compound 0.3 µM", "result": 44.3, "unit": "%"}, {"measurement": "viability, T/C", "setting": "second compound 0.00949 µM, first compound 0.000949 µM", "result": 90.5, "unit": "%"}, {"measurement": "viability, T/C", "setting": "second compound 0.00949 µM, first compound 0.003 µM", "result": 93.7, "unit": "%"}, {"measurement": "viability, T/C", "setting": "second compound 0.00949 µM, first compound 0.00949 µM", "result": 83.2, "unit": "%"}, {"measurement": "viability, T/C", "setting": "second compound 0.00949 µM, first compound 0.03 µM", "result": 54.1, "unit": "%"}, {"measurement": "viability, T/C", "setting": "second compound 0.00949 µM, first compound 0.0949 µM", "result": 51.6, "unit": "%"}, {"measurement": "viability, T/C", "setting": "second compound 0.00949 µM, first compound 0.3 µM", "result": 44.6, "unit": "%"}, {"measurement": "viability, T/C", "setting": "second compound 0.03 µM, first compound 0.000949 µM", "result": 86.1, "unit": "%"}, {"measurement": "viability, T/C", "setting": "second compound 0.03 µM, first compound 0.003 µM", "result": 88.8, "unit": "%"}, {"measurement": "viability, T/C", "setting": "second compound 0.03 µM, first compound 0.00949 µM", "result": 78.4, "unit": "%"}, {"measurement": "viability, T/C", "setting": "second compound 0.03 µM, first compound 0.03 µM", "result": 54.9, "unit": "%"}, {"measurement": "viability, T/C", "setting": "second compound 0.03 µM, first compound 0.0949 µM", "result": 44.1, "unit": "%"}, {"measurement": "viability, T/C", "setting": "second compound 0.03 µM, first compound 0.3 µM", "result": 47.6, "unit": "%"}, {"measurement": "viability, T/C", "setting": "second compound 0.0949 µM, first compound 0.000949 µM", "result": 107, "unit": "%"}, {"measurement": "viability, T/C", "setting": "second compound 0.0949 µM, first compound 0.003 µM", "result": 83.6, "unit": "%"}, {"measurement": "viability, T/C", "setting": "second compound 0.0949 µM, first compound 0.00949 µM", "result": 70.3, "unit": "%"}, {"measurement": "viability, T/C", "setting": "second compound 0.0949 µM, first compound 0.03 µM", "result": 56.8, "unit": "%"}, {"measurement": "viability, T/C", "setting": "second compound 0.0949 µM, first compound 0.0949 µM", "result": 45.5, "unit": "%"}, {"measurement": "viability, T/C", "setting": "second compound 0.0949 µM, first compound 0.3 µM", "result": 39.9, "unit": "%"}, {"measurement": "viability, T/C", "setting": "second compound 0.3 µM, first compound 0.000949 µM", "result": 83.9, "unit": "%"}, {"measurement": "viability, T/C", "setting": "second compound 0.3 µM, first compound 0.003 µM", "result": 86.6, "unit": "%"}, {"measurement": "viability, T/C", "setting": "second compound 0.3 µM, first compound 0.00949 µM", "result": 65, "unit": "%"}, {"measurement": "viability, T/C", "setting": "second compound 0.3 µM, first compound 0.03 µM", "result": 52.2, "unit": "%"}, {"measurement": "viability, T/C", "setting": "second compound 0.3 µM, first compound 0.0949 µM", "result": 39.4, "unit": "%"}, {"measurement": "viability, T/C", "setting": "second compound 0.3 µM, first compound 0.3 µM", "result": 36.3, "unit": "%"}]}
{"smiles": "C=CC(=O)N1CCN(c2nc(OCC3CCCN3C)nc3c(F)c(-c4nc(N)cc(C)c4C(F)(F)F)c(Cl)cc23)C(C)C1", "note": "(centres undefined) + CCn1c(-c2cc(N3CCN(C)CC3)cnc2C(C)OC)c2c3cc(ccc31)-c1csc(n1)CC(NC(=O)C1CC1C)C(=O)N1CCCC(N1)C(=O)OCC(C)(C)C2", "values": [{"measurement": "IC50", "setting": "second compound 0.000949 µM", "result": "> 1000", "unit": "nM"}, {"measurement": "IC50", "setting": "second compound 0.003 µM", "result": "> 1000", "unit": "nM"}, {"measurement": "IC50", "setting": "second compound 0.00949 µM", "result": "< 3.16", "unit": "nM"}, {"measurement": "IC50", "setting": "second compound 0.03 µM", "result": "< 3.16", "unit": "nM"}, {"measurement": "IC50", "setting": "second compound 0.0949 µM", "result": "< 3.16", "unit": "nM"}, {"measurement": "IC50", "setting": "second compound 0.3 µM", "result": "< 3.16", "unit": "nM"}, {"measurement": "viability, T/C", "setting": "second compound 0.000949 µM, first compound 0.00316 µM", "result": 82.5, "unit": "%"}, {"measurement": "viability, T/C", "setting": "second compound 0.000949 µM, first compound 0.01 µM", "result": 74.3, "unit": "%"}, {"measurement": "viability, T/C", "setting": "second compound 0.000949 µM, first compound 0.0316 µM", "result": 70, "unit": "%"}, {"measurement": "viability, T/C", "setting": "second compound 0.000949 µM, first compound 0.1 µM", "result": 79.5, "unit": "%"}, {"measurement": "viability, T/C", "setting": "second compound 0.000949 µM, first compound 0.316 µM", "result": 77.1, "unit": "%"}, {"measurement": "viability, T/C", "setting": "second compound 0.000949 µM, first compound 1 µM", "result": 90, "unit": "%"}, {"measurement": "viability, T/C", "setting": "second compound 0.003 µM, first compound 0.00316 µM", "result": 57.1, "unit": "%"}, {"measurement": "viability, T/C", "setting": "second compound 0.003 µM, first compound 0.01 µM", "result": 56.9, "unit": "%"}, {"measurement": "viability, T/C", "setting": "second compound 0.003 µM, first compound 0.0316 µM", "result": 57.9, "unit": "%"}, {"measurement": "viability, T/C", "setting": "second compound 0.003 µM, first compound 0.1 µM", "result": 49.6, "unit": "%"}, {"measurement": "viability, T/C", "setting": "second compound 0.003 µM, first compound 0.316 µM", "result": 55, "unit": "%"}, {"measurement": "viability, T/C", "setting": "second compound 0.003 µM, first compound 1 µM", "result": 57.2, "unit": "%"}, {"measurement": "viability, T/C", "setting": "second compound 0.00949 µM, first compound 0.00316 µM", "result": 31.1, "unit": "%"}, {"measurement": "viability, T/C", "setting": "second compound 0.00949 µM, first compound 0.01 µM", "result": 32, "unit": "%"}, {"measurement": "viability, T/C", "setting": "second compound 0.00949 µM, first compound 0.0316 µM", "result": 36.7, "unit": "%"}, {"measurement": "viability, T/C", "setting": "second compound 0.00949 µM, first compound 0.1 µM", "result": 29.8, "unit": "%"}, {"measurement": "viability, T/C", "setting": "second compound 0.00949 µM, first compound 0.316 µM", "result": 31.6, "unit": "%"}, {"measurement": "viability, T/C", "setting": "second compound 0.00949 µM, first compound 1 µM", "result": 31, "unit": "%"}, {"measurement": "viability, T/C", "setting": "second compound 0.03 µM, first compound 0.00316 µM", "result": 19.6, "unit": "%"}, {"measurement": "viability, T/C", "setting": "second compound 0.03 µM, first compound 0.01 µM", "result": 22, "unit": "%"}, {"measurement": "viability, T/C", "setting": "second compound 0.03 µM, first compound 0.0316 µM", "result": 17.9, "unit": "%"}, {"measurement": "viability, T/C", "setting": "second compound 0.03 µM, first compound 0.1 µM", "result": 20.6, "unit": "%"}, {"measurement": "viability, T/C", "setting": "second compound 0.03 µM, first compound 0.316 µM", "result": 18.1, "unit": "%"}, {"measurement": "viability, T/C", "setting": "second compound 0.03 µM, first compound 1 µM", "result": 19.8, "unit": "%"}, {"measurement": "viability, T/C", "setting": "second compound 0.0949 µM, first compound 0.00316 µM", "result": 16, "unit": "%"}, {"measurement": "viability, T/C", "setting": "second compound 0.0949 µM, first compound 0.01 µM", "result": 14.3, "unit": "%"}, {"measurement": "viability, T/C", "setting": "second compound 0.0949 µM, first compound 0.0316 µM", "result": 16.1, "unit": "%"}, {"measurement": "viability, T/C", "setting": "second compound 0.0949 µM, first compound 0.1 µM", "result": 15.5, "unit": "%"}, {"measurement": "viability, T/C", "setting": "second compound 0.0949 µM, first compound 0.316 µM", "result": 15.2, "unit": "%"}, {"measurement": "viability, T/C", "setting": "second compound 0.0949 µM, first compound 1 µM", "result": 13.5, "unit": "%"}, {"measurement": "viability, T/C", "setting": "second compound 0.3 µM, first compound 0.00316 µM", "result": 16.1, "unit": "%"}, {"measurement": "viability, T/C", "setting": "second compound 0.3 µM, first compound 0.01 µM", "result": 16.3, "unit": "%"}, {"measurement": "viability, T/C", "setting": "second compound 0.3 µM, first compound 0.0316 µM", "result": 15.6, "unit": "%"}, {"measurement": "viability, T/C", "setting": "second compound 0.3 µM, first compound 0.1 µM", "result": 16.5, "unit": "%"}, {"measurement": "viability, T/C", "setting": "second compound 0.3 µM, first compound 0.316 µM", "result": 16.2, "unit": "%"}, {"measurement": "viability, T/C", "setting": "second compound 0.3 µM, first compound 1 µM", "result": 13.6, "unit": "%"}]}
